According to paper PMC5784158, “New 2-Aryl-9-methyl-β-carbolinium salts as Potential Acetylcholinesterase Inhibitor agents: Synthesis, Bioactivity and Structure–Activity Relationship” (Scientific Reports, 2018):
Like-named read-outs stand apart in the source and are kept apart here.

Key:
AChE = AChE (Musca domestica, UniProt Q7YWJ9); test: biochemical; assay type: biochemical, fly; conditions: for Inhibition rate (%): test concentration of the compound 10 μM
Method: AChE (E.C. 3.1.1.7) (BR, 200 u/mg) from fly’s head and BuChE (E.C. 3.1.1.8) (BR, 20 u/mg) from horse serum were purchased from Shanghai Yuanye biological technology Co. Ltd (Shanghai, China).
(§1) The inhibitory activities of the compounds against AChE were evaluated according to Ellman’s coupled enzyme assay[47] with the following modifications. 90 μL potassium phosphate buffer (PBS, 0.1 M, pH 7.4), 10 μL the solution of 2 units/mL AChE in 0.1 M PBS (pH 7.4) and 10 μL the solution of 200 μM test compounds in the mixed solution of methanol-PBS (pH 7.4) (1:9, V/V) were added to each well of a 96-well plate. The methanol-PBS solution was used as a blank control. After incubation at room temperature for 10 min, 60 μL the solution of 10 mM DTNB in PBS was added into each the well. The plate was placed on crushed ices and cooled for 20 min. To each the well was added 30 μL the solution of 7.5 mM ATCh in PBS (pH 7.4). […] Each test was performed in triplicate. Inhibition rates of the enzyme were calculated relative to a control sample. The inhibitory activities against BuChE were measured as described above for AChE, using 0.7 unit/mL BuChE and 4 mM BuTCh instead of AChE and ATCh as the enzyme and substrate, respectively.
(§2) The probit value of the average inhibition rate for each test concentration and the corresponding lg[concentration] were used to establish enzyme inhibition regression equation by the linear least-square fitting method. IC50 values were calculated from the equations.

BuChE = molecular target: T1, BuChE (Equus caballus, UniProt P81908); test: BuChE inhibition, Ellman's method; assay type: biochemical, horse; conditions: read-out: IC50 ± S.D BuChE
T1 construct: BuChE (E.C. 3.1.1.8) (BR, 20 u/mg) from horse serum; purchased Shanghai Yuanye biological technology Co. Ltd (Shanghai, China); host or cells: horse serum (tissue-derived)
Source text: There is increasing recognition that BuChE may play an important role in cholinergic transmission[15],[16]. While the level of AChE decreases dramatically in the advanced stage of AD, BuChE increases in brain regions involved in cognitive functions[17],[18]. At this point, BuChE is able to compensate for AChE loss by hydrolyzing ACh. These observations lead one to believe that inhibition of both AChE and BuChE may contribute to improvement of current symptomatic treatments of AD. Therefore, the compounds in Table 2 were also evaluated for BuChE inhibition activity by means of Ellman’s method. […] AChE (E.C. 3.1.1.7) (BR, 200 u/mg) from fly’s head and BuChE (E.C. 3.1.1.8) (BR, 20 u/mg) from horse serum were purchased from Shanghai Yuanye biological technology Co. Ltd (Shanghai, China).
as §1, §2

[1] = Estimated values based on the results in Table 1 (inhibition rate at 10 μM), read-out: IC50 AChE, estimated values

T1 sequence (P81908 whole entry): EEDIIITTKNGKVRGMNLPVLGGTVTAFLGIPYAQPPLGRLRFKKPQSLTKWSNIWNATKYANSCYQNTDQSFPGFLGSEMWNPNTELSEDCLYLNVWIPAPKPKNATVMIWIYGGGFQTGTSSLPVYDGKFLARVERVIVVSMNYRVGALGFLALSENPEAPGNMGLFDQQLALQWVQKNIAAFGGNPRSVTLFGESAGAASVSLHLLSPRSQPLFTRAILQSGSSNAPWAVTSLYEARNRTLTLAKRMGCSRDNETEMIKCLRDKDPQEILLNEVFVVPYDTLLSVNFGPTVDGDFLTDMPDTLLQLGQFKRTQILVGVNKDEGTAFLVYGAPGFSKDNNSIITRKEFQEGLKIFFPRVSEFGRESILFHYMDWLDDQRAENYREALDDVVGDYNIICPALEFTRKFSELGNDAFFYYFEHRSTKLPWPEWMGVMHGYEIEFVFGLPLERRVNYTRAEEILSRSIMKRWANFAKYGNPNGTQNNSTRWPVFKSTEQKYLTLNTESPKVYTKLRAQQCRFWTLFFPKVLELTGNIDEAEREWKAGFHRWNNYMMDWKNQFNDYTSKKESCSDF
Chain of AChE (Q7YWJ9 81-659): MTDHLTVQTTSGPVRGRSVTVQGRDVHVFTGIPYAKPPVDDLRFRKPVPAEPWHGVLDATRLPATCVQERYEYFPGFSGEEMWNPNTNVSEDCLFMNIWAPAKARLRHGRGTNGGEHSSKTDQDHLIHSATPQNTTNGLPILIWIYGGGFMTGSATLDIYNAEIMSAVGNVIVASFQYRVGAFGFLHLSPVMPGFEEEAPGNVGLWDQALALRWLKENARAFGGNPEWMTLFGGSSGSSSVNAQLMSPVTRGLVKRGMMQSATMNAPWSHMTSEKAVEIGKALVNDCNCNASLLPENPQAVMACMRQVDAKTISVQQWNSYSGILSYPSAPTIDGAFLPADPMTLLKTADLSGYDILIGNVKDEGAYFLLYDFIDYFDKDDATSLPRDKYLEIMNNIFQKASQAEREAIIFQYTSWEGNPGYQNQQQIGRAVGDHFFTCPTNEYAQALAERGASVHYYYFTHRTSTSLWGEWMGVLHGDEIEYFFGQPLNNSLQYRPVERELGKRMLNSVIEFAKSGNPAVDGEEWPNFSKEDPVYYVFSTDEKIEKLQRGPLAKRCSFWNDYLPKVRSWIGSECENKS

SMILES | SI: selectivity index, ratio IC50 (BuChE)/IC50 (AChE) (AChE) | Inhibition rate (%) (AChE) | IC50 (BuChE) [µM] | IC50 (AChE; read-out: IC50 ± S.D AChE) [µM] | IC50 (AChE; [1]) [µM] | IC50 (AChE; 10 μM, read-out: IC50 AChE, NA) [µM]
Cn1c2ccccc2c2cc[n+](-c3ccc(I)cc3)cc21.[Br-] [Compound B13, 9-Methyl-2-(4-iodohenyl)-β-carboline bromide] | 168.3 | 93.8 ± 0.4 abcd % | 40.4 ± 1.83 |  |  | 
Cn1c2ccccc2c2cc[n+](-c3ccccc3C#N)cc21.[Br-] [Compound B23, 9-Methyl-2-(2-cyanophenyl)-β-carboline bromide] | 44.4 | 68.7 ± 0.7 lm % | 196 ± 13.4 | 4.41 ± 0.29 |  | 
Cn1c2c(c3ccc(F)cc31)CC[N+](c1ccccc1)=C2.[Br-] [Compound A36] | 3.00 | 59.3 ± 2.1 de % | 14.2 ± 0.44 | 4.74 ± 0.9 |  | 
Cn1c2c(c3ccccc31)CC[N+](c1cccc(O)c1)=C2.[Br-] [Compound A15] | 1.63 | 51.8 ± 9.1 fg % | 10 ± 0.59 | 6.12 ± 0.61 |  | 
COc1ccc(-[n+]2ccc3c4ccccc4n(C)c3c2)cc1.[Br-] [Compound B19, 9-Methyl-2-(4-methoxylphenyl)-β-carboline bromide] | 72.3 | 90.7 ± 0.8 def % | 34 ± 2 | 0.47 ± 0.04 |  | 
CC(C)n1c2c(c3ccccc31)CC[N+](c1ccccc1)=C2.[Br-] [Compound A40] | 4.37 | 68.9 ± 5.1 bc % | 16.3 ± 0.56 | 3.73 ± 0.34 |  | 
Cn1c2ccccc2c2cc[n+](-c3ccc(O)cc3)cc21.[Br-] [Compound B16, 9-Methyl-2-(4-hydroxyhenyl)-β-carboline bromide] | 45.3 | 82.1 ± 2.5 ij % | 67.9 ± 11.5 | 1.5 ± 0.19 |  | 
Cn1c2c(c3ccccc31)CC[N+](c1ccc(F)cc1)=C2.[Br-] [Compound A4] | 4.22 | 49.3 ± 2.2 fgh % | 59.5 ± 2.72 | 14.1 ± 1.41 |  | 
C=CCn1c2c(c3ccccc31)CC[N+](c1ccccc1)=C2.[Br-] [Compound A41] | 1.75 | 74.4 ± 1.1 ab % | 6.83 ± 0.2 | 3.91 ± 0.36 |  | 
Cc1cccc(-[n+]2ccc3c4ccccc4n(C)c3c2)c1.[Br-] [Compound B21, 9-Methyl-2-(3-methylphenyl)-β-carboline bromide] | 13.6 | 72.4 ± 3.9 l % | 68.6 ± 8.06 | 5.05 ± 0.26 |  | 
Cn1c2ccccc2c2cc[n+](-c3cccc(F)c3)cc21.[Br-] [Compound B3, 9-Methyl-2-(3-fluorophenyl)-β-carboline bromide] | 15.3 | 70.5 ± 2.2 l % | 72.4 ± 4.25 | 4.73 ± 0.33 |  | 
CCCCn1c2c(c3ccccc31)CC[N+](c1ccccc1)=C2.[Br-] [Compound A42] | 1.02 | 53.9 ± 1.5 ef % | 10 ± 0.68 | 9.79 ± 3.55 |  | 
Cn1c2c(c3ccc(Cl)cc31)CC[N+](c1ccccc1)=C2.[Br-] [Compound A37] | 2.91 | 66.6 ± 4.7 c % | 11.7 ± 0.5 | 4.02 ± 0.95 |  | 
Cn1c2ccccc2c2cc[n+](-c3ccccc3F)cc21.[Br-] [Compound B2, 9-Methyl-2-(2-fluorophenyl)-β-carboline bromide] | 3.49 | 59.8 ± 3.2 n % | 23 ± 0.53 | 6.65 ± 1.07 |  | 
Cc1ccc2c(c1)c1c(n2C)C=[N+](c2ccccc2)CC1.[Br-] [Compound A35] | 3.98 | 70.3 ± 2.2 bc % | 10.6 ± 0.58 | 2.66 ± 0.37 |  | 
COc1ccc2c(c1)c1c(n2C)C=[N+](c2ccccc2)CC1.[Br-] [Compound A34] | 18.4 | 68.4 ± 2.8 c % | 37.6 ± 2.84 | 2.04 ± 0.33 |  | 

SMILES | SI: selectivity index, ratio IC50 (BuChE)/IC50 (AChE) (AChE) | Inhibition rate (%) (AChE) | IC50 (BuChE) [µM] | IC50 (AChE; read-out: IC50 ± S.D AChE) [µM] | IC50 (AChE; [1]) [µM] | IC50 (AChE; 10 μM, read-out: IC50 AChE, NA) [µM]
Cn1c2ccccc2c2cc[n+](-c3ccc(Cl)cc3)cc21.[Br-] [Compound B7, 9-Methyl-2-(4-chlorophenyl)-β-carboline bromide] | 107.1 | 91.2 ± 1.5 cde % | 60 ± 1.52 | 0.56 ± 0.07 |  | 
Cn1c2ccccc2c2cc[n+](-c3ccc(Cl)cc3Cl)cc21.[Br-] [Compound B30, 9-Methyl-2-(2,4-dichlorophenyl)-β-carboline bromide] | 241.1 | 90.6 ± 1.0 def % | 133 ± 26.3 | 0.55 ± 0.07 |  | 
Cn1c2ccccc2c2cc[n+](-c3cccc(Cl)c3)cc21.[Br-] [Compound B6, 9-Methyl-2-(3-chlorophenyl)-β-carboline bromide] | 3.40 | 56.4 ± 2.5 no % | 33.1 ± 1.07 | 9.65 ± 0.78 |  | 
COc1cccc(-[n+]2ccc3c4ccccc4n(C)c3c2)c1.[Br-] [Compound B18, 9-Methyl-2-(3-methoxylphenyl)-β-carboline bromide] | 6.42 | 53.5 ± 0.4 op % | 62.2 ± 3.62 | 9.69 ± 0.8 |  | 
COc1ccc([N+]2=Cc3c(c4ccccc4n3C)CC2)cc1.[Br-] [Compound A19] | 46.9 | 66.1 ± 0.5 c % | 137 ± 0.79 | 2.92 ± 0.28 |  | 
Cn1c2ccccc2c2cc[n+](-c3ccc(C(F)(F)F)cc3)cc21.[Br-] [Compound B27, 9-Methyl-2-(4-trifluoromethylphenyl)-β-carboline bromide] | 111.3 | 91.4 ± 0.3 bcde % | 77.9 ± 4.97 | 0.7 ± 0.11 |  | 
Cn1c2c(c3ccccc31)CC[N+](c1ccc(I)cc1)=C2.[Br-] [Compound A13] | 9.80 | 54.2 ± 3.2 ef % | 53.8 ± 2.51 | 5.5 ± 0.37 |  | 
Cn1c2ccccc2c2cc[n+](-c3ccc(F)cc3)cc21.[Br-] [Compound B4, 9-Methyl-2-(4-fluorophenyl)-β-carboline bromide] | 35.3 | 84.3 ± 1.5 hi % | 51.6 ± 2.43 | 1.46 ± 0.12 |  | 
Cc1ccccc1[N+]1=Cc2c(c3ccccc3n2C)CC1.[Br-] [Compound A20] |  | 44.3 ± 1.7 j % |  |  | > 10 | 
CC(C)Cn1c2c(c3ccccc31)CC[N+](c1ccccc1)=C2.[Br-] [Compound A43] |  | 46.5 ± 1.9 ghi % |  |  | > 10 | 
Cn1c2c(c3ccccc31)CC[N+](c1cc(Cl)cc(Cl)c1)=C2.[Br-] [Compound A31] |  | 0.7 ± 0.5 stu % |  |  |  | > 10
Cn1c2c(c3ccccc31)CC[N+](c1ccccc1Cl)=C2.[Br-] [Compound A5] |  | 2.4 ± 8.0 stu % |  |  | > 10 | 
CCOC(=O)Cn1c2ccccc2c2cc[n+](-c3ccccc3)cc21.[Br-] [Compound B45, 9-(Ethoxy-2-oxyethyl)-2-phenyl-β-carboline bromide] |  | 42.0 ± 0.7 rs % |  |  | > 10 | 
Cn1c2c(c3ccccc31)CC[N+](c1ccc(Cl)cc1Cl)=C2.[Br-] [Compound A30] |  | −0.5 ± 2.4 tu % |  |  |  | > 10
Cn1c2ccccc2c2cc[n+](-c3ccc(C#N)cc3)cc21.[Br-] [Compound B25, 9-Methyl-2-(4-cyanophenyl)-β-carboline bromide] |  | 36.8 ± 0.8 t % |  |  | > 10 | 
CC(C)n1c2ccccc2c2cc[n+](-c3ccccc3)cc21.[Br-] [Compound B40, 9-Iso-propyl-2-phenyl-β-carboline bromide] |  | 86.9 ± 0.8 fgh % |  | 0.54 ± 0.16 |  | 
